Test results from patent US10206394B2, “Herbicidal compounds” (Syngenta Participations AG, priority 2014, dated 2019).
Where two headings read alike, the source gives them in different places.

How the values were obtained:
Experiment in all cases: Glasshouse assay for herbicidal activity (pre- and post-emergence), percentage phytotoxicity
Assay type in all cases: in vivo
Lolium perenne (LOLPE) = conditions: Lolium perenne
Summary of the method: (§1)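 Pot-grown plants treated one day after sowing (pre-emergence) or at about 12 days (post-emergence); glasshouse at 24/18° C (warm) or 20/16° C (cool species) day/night, 16 h light, 65% humidity. Visual % phytotoxicity (0 = none, 100 = total damage) scored at 15 DAA post or 20 DAA pre.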

[1] = system: Alopecurus myosuroides (ALOMY); conditions: Alopecurus myosuroides
Summary of the method: as §1

[2] = system: Echinochloa crus-galli (ECHCG); conditions: Echinochloa crus-galli
Summary of the method: as §1

Avena fatua (AVEFA) = conditions: Avena fatua
Summary of the method: as §1

[3] = post-emergence, 360 h, POST-emergence, rate 250 g/ha, visual score 15 DAA (100%=total damage, 0%=no damage), read-out: Post-emergence herbicidal activity (percentage phytotoxicity) LOLPE POST
[4] = pre-emergence, 480 h, PRE-emergence, rate 250 g/ha, visual score 20 DAA (100%=total damage, 0%=no damage), read-out: Pre-emergence herbicidal activity (percentage phytotoxicity) LOLPE PRE
[5] = post-emergence, 360 h, POST-emergence, rate 250 g/ha, visual score 15 DAA (100%=total damage, 0%=no damage), read-out: Post-emergence herbicidal activity (percentage phytotoxicity) ALOMY POST
[6] = pre-emergence, 480 h, PRE-emergence, rate 250 g/ha, visual score 20 DAA (100%=total damage, 0%=no damage), read-out: Pre-emergence herbicidal activity (percentage phytotoxicity) ALOMY PRE
[7] = post-emergence, 360 h, POST-emergence, rate 250 g/ha, visual score 15 DAA (100%=total damage, 0%=no damage), read-out: Post-emergence herbicidal activity (percentage phytotoxicity) ECHCG POST
[8] = pre-emergence, 480 h, PRE-emergence, rate 250 g/ha, visual score 20 DAA (100%=total damage, 0%=no damage), read-out: Pre-emergence herbicidal activity (percentage phytotoxicity) ECHCG PRE
[9] = post-emergence, 360 h, POST-emergence, rate 250 g/ha, visual score 15 DAA (100%=total damage, 0%=no damage), read-out: Post-emergence herbicidal activity (percentage phytotoxicity) AVEFA POST
[10] = pre-emergence, 480 h, PRE-emergence, rate 250 g/ha, visual score 20 DAA (100%=total damage, 0%=no damage), read-out: Pre-emergence herbicidal activity (percentage phytotoxicity) AVEFA PRE
[11] = post-emergence, 360 h, 250 g/ha, post-emergence, 15 DAA, visual assessment (100%=total damage, 0%=no damage), read-out: Post-emergence herbicidal activity (percentage phytotoxicity) LOLPE POST
[12] = pre-emergence, 480 h, 250 g/ha, pre-emergence, 20 DAA, visual assessment (100%=total damage, 0%=no damage), read-out: Pre-emergence herbicidal activity (percentage phytotoxicity) LOLPE PRE
[13] = post-emergence, 360 h, 250 g/ha, post-emergence, 15 DAA, visual assessment (100%=total damage, 0%=no damage), read-out: Post-emergence herbicidal activity (percentage phytotoxicity) ALOMY POST
[14] = pre-emergence, 480 h, 250 g/ha, pre-emergence, 20 DAA, visual assessment (100%=total damage, 0%=no damage), read-out: Pre-emergence herbicidal activity (percentage phytotoxicity) ALOMY PRE
[15] = post-emergence, 360 h, 250 g/ha, post-emergence, 15 DAA, visual assessment (100%=total damage, 0%=no damage), read-out: Post-emergence herbicidal activity (percentage phytotoxicity) ECHCG POST
[16] = pre-emergence, 480 h, 250 g/ha, pre-emergence, 20 DAA, visual assessment (100%=total damage, 0%=no damage), read-out: Pre-emergence herbicidal activity (percentage phytotoxicity) ECHCG PRE
[17] = post-emergence, 360 h, 250 g/ha, post-emergence, 15 DAA, visual assessment (100%=total damage, 0%=no damage), read-out: Post-emergence herbicidal activity (percentage phytotoxicity) AVEFA POST
[18] = pre-emergence, 480 h, 250 g/ha, pre-emergence, 20 DAA, visual assessment (100%=total damage, 0%=no damage), read-out: Pre-emergence herbicidal activity (percentage phytotoxicity) AVEFA PRE

SMILES: CCNC(=O)CC1CC(=O)C(c2c(C)cc(-c3ccc(Br)cn3)cc2C)C1=O (stereo not drawn) [Compound B323]
- pest or weed control at 250 g/ha (Lolium perenne (LOLPE); [3]): 100%
- pest or weed control at 250 g/ha (Lolium perenne (LOLPE); [4]): 100%
- pest or weed control at 250 g/ha [1, 5]: 100%
- pest or weed control at 250 g/ha [1, 6]: 100%
- pest or weed control at 250 g/ha [2, 7]: 100%
- pest or weed control at 250 g/ha [2, 8]: 100%
- pest or weed control at 250 g/ha (Avena fatua (AVEFA); [9]): 100%
- pest or weed control at 250 g/ha (Avena fatua (AVEFA); [10]): 90%

SMILES: Cc1cc(C)c(C2C(=O)CC(CC(=O)NC3CC3(F)F)C2=O)c(C)c1 (stereo not drawn) [Compound B98]
- pest or weed control at 250 g/ha (Lolium perenne (LOLPE); [11]): 80%
- pest or weed control at 250 g/ha (Lolium perenne (LOLPE); [12]): 90%
- pest or weed control at 250 g/ha [1, 13]: 60%
- pest or weed control at 250 g/ha [1, 14]: 60%
- pest or weed control at 250 g/ha [2, 15]: 60%
- pest or weed control at 250 g/ha [2, 16]: 80%
- pest or weed control at 250 g/ha (Avena fatua (AVEFA); [17]): 20%
- pest or weed control at 250 g/ha (Avena fatua (AVEFA); [18]): 0%

SMILES: CCc1cc(-n2cc(Cl)cn2)cc(C)c1C1C(=O)CC(CC(=O)NCc2ccc(C#N)cc2)C1=O (stereo not drawn) [Compound B234]
- pest or weed control at 250 g/ha (Lolium perenne (LOLPE); [3]): 80%
- pest or weed control at 250 g/ha (Lolium perenne (LOLPE); [4]): 70%
- pest or weed control at 250 g/ha [1, 5]: 90%
- pest or weed control at 250 g/ha [1, 6]: 60%
- pest or weed control at 250 g/ha [2, 7]: 90%
- pest or weed control at 250 g/ha [2, 8]: 70%
- pest or weed control at 250 g/ha (Avena fatua (AVEFA); [9]): 100%
- pest or weed control at 250 g/ha (Avena fatua (AVEFA); [10]): 80%

SMILES: Cc1cc(C)c(C2C(=O)CC(CC(=O)NCc3ccc(C(F)(F)F)cc3)C2=O)c(C)c1 (stereo not drawn) [Compound B15]
- pest or weed control at 250 g/ha (Lolium perenne (LOLPE); [11]): 90%
- pest or weed control at 250 g/ha (Lolium perenne (LOLPE); [12]): 100%
- pest or weed control at 250 g/ha [1, 13]: 70%
- pest or weed control at 250 g/ha [1, 14]: 80%
- pest or weed control at 250 g/ha [2, 15]: 90%
- pest or weed control at 250 g/ha [2, 16]: 90%
- pest or weed control at 250 g/ha (Avena fatua (AVEFA); [17]): 90%
- pest or weed control at 250 g/ha (Avena fatua (AVEFA); [18]): 80%

SMILES: COCC(C)NC(=O)CC1CC(=O)C(c2c(C)cc(-c3ccc(Cl)cn3)cc2C)C1=O (stereo not drawn) [Compound B366]
- pest or weed control at 250 g/ha (Lolium perenne (LOLPE); post-emergence, 360 h, Rate 250 g/ha, post-emergence, visual assessment 15 DAA, 100%=total damage, 0%=no damage, read-out: Post-emergence herbicidal activity (percentage phytotoxicity) LOLPE POST): 90%
- pest or weed control at 250 g/ha (Lolium perenne (LOLPE); pre-emergence, 480 h, Rate 250 g/ha, pre-emergence, visual assessment 20 DAA, 100%=total damage, 0%=no damage, read-out: Pre-emergence herbicidal activity (percentage phytotoxicity) LOLPE PRE): 100%
- pest or weed control at 250 g/ha ([1]; post-emergence, 360 h, Rate 250 g/ha, post-emergence, visual assessment 15 DAA, 100%=total damage, 0%=no damage, read-out: Post-emergence herbicidal activity (percentage phytotoxicity) ALOMY POST): 90%
- pest or weed control at 250 g/ha ([1]; pre-emergence, 480 h, Rate 250 g/ha, pre-emergence, visual assessment 20 DAA, 100%=total damage, 0%=no damage, read-out: Pre-emergence herbicidal activity (percentage phytotoxicity) ALOMY PRE): 100%
- pest or weed control at 250 g/ha ([2]; post-emergence, 360 h, Rate 250 g/ha, post-emergence, visual assessment 15 DAA, 100%=total damage, 0%=no damage, read-out: Post-emergence herbicidal activity (percentage phytotoxicity) ECHCG POST): 100%
- pest or weed control at 250 g/ha ([2]; pre-emergence, 480 h, Rate 250 g/ha, pre-emergence, visual assessment 20 DAA, 100%=total damage, 0%=no damage, read-out: Pre-emergence herbicidal activity (percentage phytotoxicity) ECHCG PRE): 100%
- pest or weed control at 250 g/ha (Avena fatua (AVEFA); post-emergence, 360 h, Rate 250 g/ha, post-emergence, visual assessment 15 DAA, 100%=total damage, 0%=no damage, read-out: Post-emergence herbicidal activity (percentage phytotoxicity) AVEFA POST): 100%
- pest or weed control at 250 g/ha (Avena fatua (AVEFA); pre-emergence, 480 h, Rate 250 g/ha, pre-emergence, visual assessment 20 DAA, 100%=total damage, 0%=no damage, read-out: Pre-emergence herbicidal activity (percentage phytotoxicity) AVEFA PRE): 100%

SMILES: C=C(C)CNC(=O)CC1CC(=O)C(c2c(C)cc(-c3ncc(Cl)cc3F)cc2C)C1=O (stereo not drawn) [Compound B94]
- pest or weed control at 250 g/ha (Lolium perenne (LOLPE); [11]): 100%
- pest or weed control at 250 g/ha (Lolium perenne (LOLPE); [12]): 100%
- pest or weed control at 250 g/ha [1, 13]: 100%
- pest or weed control at 250 g/ha [1, 14]: 100%
- pest or weed control at 250 g/ha [2, 15]: 100%
- pest or weed control at 250 g/ha [2, 16]: 100%
- pest or weed control at 250 g/ha (Avena fatua (AVEFA); [17]): 100%
- pest or weed control at 250 g/ha (Avena fatua (AVEFA); [18]): 90%
